# Tests used:
# P-glycoprotein (P-gp) = conditions: background statement, no reference given; cited from earlier work
# [1] = cited from earlier work
# [2] = tested on: breast cancer resistance protein (BCRP); conditions: background statement, no reference given; cited from earlier work
# [3] = tested on: HR-positive/HER2-negative MBC patients; assay: Adverse drug reactions in treated patients, graded by CTCAE Version 5.0; format: in vivo, human; conditions: palbociclib 100 mg/day
# From the text: (§1) Our counselling service was already available for other KI used in oncology as imatinib, sorafenib, regorafenib, sunitinib, lenvatinib, and three PARP inhibitors: olaparib, niraparib, and rucaparib. Written informed consent was obtained for pharmacogenetic and TDM analyses and the publication of the here presented reports. Any potentially identifying information was omitted. Data concerning age, disease, stage, and molecular profiling, treatment regimen and setting, drug dose, adverse drug reactions, and coadministered treatments were retrieved from the electronic medical record upon patients’ reporting by the prescribing medical oncologist. Toxicities were retrospectively collected through clinical records revision and graded according to Common Terminology Criteria for Adverse Events (CTCAE) Version 5.0.
# [4] = Therapeutic drug monitoring: steady-state plasma concentration in patients by LC-MS/MS
# Experimental: (§2) Plasma was obtained by centrifugation at 2,450 g for 10 min at 4°C of whole blood EDTA tubes and stored at −80°C until analysis. Patients’ samples were analyzed with a newly developed LC-MS/MS method as previously reported ([Posocco et al., 2020]). Drug concentration was usually evaluated at specific time points, which allowed the evaluation of Cmin or Cmax at steady state. […] Last administration (self-reported) and sampling times were also recorded. According to the literature ([Verheijen et al., 2017]), the average exposure of the approved efficacious dose was used as a proxy of target Cmin and will be referred to as “target Cmin” in this article.
# (§3) Descriptive statistics were used to present and analyze the TDM data. The mean population Cmin value reported in the literature for patients treated with the standard dose was used to evaluate the TDM target, and the ±20% intervals were calculated. This interval was based on acceptable variability of analytical data according to incurred sample reanalysis criteria ([FDA, 2018]; [EMA, 2022]). Patients who fell outside this range were considered to be potentially under or overexposed to the drugs.
# clinical = conditions: human
# Experimental: as §2, §3
# [5] = tested on: HR-positive/HER2-negative MBC patients; assay: Patient's clinical outcome of CDKi treatment for metastatic breast cancer; format: in vivo, human
# From the text: as §1
# UGT = conditions: background statement, no reference given; cited from earlier work
smiles,measurement,setting,value
CCN1CCN(Cc2ccc(Nc3ncc(F)c(-c4cc(F)c5nc(C)n(C(C)C)c5c4)n3)nc2)CC1 [abemaciclib],substrate of the efflux transporter P-gp,P-glycoprotein (P-gp),substrates
same,proposed target Cmin,"[1]; abemaciclib, MONARCH 3 patients, 132 mg/twice day, ref US Food and Drug Administration, 2017b",181 ng/mL
same,substrate of / transport by BCRP,[2],substrates
N#Cc1ccc(C(c2ccc(C#N)cc2)n2cncn2)cc1 [letrozole],proposed Cmin target value,"[1]; letrozole, dedicated exposure-efficacy studies, ref FDA, 2021a",85.6 ng/mL
CC(=O)c1c(C)c2cnc(Nc3ccc(N4CCNCC4)cn3)nc2n(C2CCCC2)c1=O [palbociclib],neutropenia grade after dose reduction,[3]; Case II,grade 4
same,neutropenia grade after dose reduction,[3]; Case V,grade 3
same,Cmin (minimum plasma concentration),"[4]; Case I, palbociclib 75 mg/day + fulvestrant, steady state, 24 h after last intake",27.3 ng/ml (palbociclib 75 mg/day)
same,Cmin,"[4]; Case II, after dose reduction to palbociclib 100 mg/day",62.3 ng/mL
same,concentration at 24 h,"[4]; human, plasma, oral, 100 mg/day",62.3 ng/mL
same,concentration at 24 h,"clinical; plasma, oral",49 to 73 ng/mL
same,Patient's clinical outcome,"[5]; Case I, palbociclib 75 mg/day + fulvestrant, II line",systemic PD
same,Patient's clinical outcome,"[5]; Case I, palbociclib 75 mg/day + fulvestrant, II line, listed as Palbociclib",Palbociclib treatment failure due to disease progression
CN(C)C(=O)c1cc2cnc(Nc3ccc(N4CCNCC4)cn3)nc2n1C1CCCC1 [ribociclib],substrate of the efflux transporter P-gp,P-glycoprotein (P-gp),substrate
same,reported mean Cmin (target population Cmin),"[1]; ribociclib standard dose 600 mg/day, ref FDA, 2021b",732 ng/mL
same,mean steady-state population Cmax,[1]; ribociclib,"2,237 ng/ml"
same,substrate of / transport by BCRP,[2],no noticeable transport
same,glucuronidation reaction by UGT,UGT,undergo a glucuronidation reaction
same,concentration at 24 h,clinical; in vivo,586 to 878 ng/mL
same,Patient's clinical outcome,"[5]; Case III, ribociclib 600 mg/day reduced to 400 mg and then 200 mg, I line",disease progression
same,Patient's clinical outcome,"[5]; Case III, ribociclib 600 mg/day reduced to 400 mg and then 200 mg, I line, listed as Ribociclib",The dose of ribociclib was reduced after more than 1 year of intermittent treatment due to toxicity. Ribociclib treatment ultimately failed

# Reference: article PMC9356076, “An Integrated Pharmacological Counselling Approach to Guide Decision-Making in the Treatment with CDK4/6 Inhibitors for Metastatic Breast Cancer” (Frontiers in Pharmacology, 2022)
